Each structure is given as a SMILES string.

Assay [1] addresses human Gal-3 (hGal-3) (Homo sapiens (Human), UniProt P17931). The assay is described as follows: Competitive binding assay: biotinylated hGal-3 binding to microplate-adsorbed asialofetuin (ASF). The settings on record: Activity on hGal-3; binding of biotinylated hGal-3 to ASF-coated plates; mean values. An outline of the steps: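 Serially diluted compounds competed with biotinylated human Gal-3 for binding to plate-adsorbed asialofetuin over 3 h at 4 °C. Bound Gal-3 was detected with streptavidin-peroxidase (80 ng/mL, 1 h, 4 °C) and ABTS substrate. IC50 values are means of several measurements.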

Assay [2] has as its target human Gal-1 (hGal-1). The experiment in a line: Competitive binding assay: biotinylated hGal-1 binding to microplate-adsorbed asialofetuin (ASF). The settings on record: Activity on hGal-1; binding of biotinylated hGal-1 to ASF-coated plates; mean values. An outline of the steps:
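Biotinylated hGal-1 (300–1000 ng/mL; optionally a cysteine-free all-serine variant) incubated 3 h at 4 °C with compound on asialofetuin-coated plates, then streptavidin-peroxidase 1 h at 4 °C. ABTS readout at OD 410 nm after 30–45 min; IC50 given as mean of several runs.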

Chain of human Gal-1 (hGal-1) (P09382 2-135 limits assumed): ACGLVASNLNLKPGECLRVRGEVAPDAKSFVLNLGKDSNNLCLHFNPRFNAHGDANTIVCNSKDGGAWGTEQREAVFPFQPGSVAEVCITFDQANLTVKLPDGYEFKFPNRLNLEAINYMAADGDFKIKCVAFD
Chain of human Gal-3 (hGal-3) (P17931 whole entry): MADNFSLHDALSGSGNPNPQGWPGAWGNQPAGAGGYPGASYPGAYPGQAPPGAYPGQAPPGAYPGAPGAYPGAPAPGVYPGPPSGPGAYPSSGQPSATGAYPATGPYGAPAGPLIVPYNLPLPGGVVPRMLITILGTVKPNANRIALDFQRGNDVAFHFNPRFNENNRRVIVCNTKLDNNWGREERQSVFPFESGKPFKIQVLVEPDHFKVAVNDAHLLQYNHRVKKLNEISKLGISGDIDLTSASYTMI

In the case of `O=C([C@@H]1O[C@H](CO)[C@H](O)[C@H](n2cc(-c3cc(F)c(F)c(Cl)c3)nn2)[C@H]1O)N(Cc1ccccc1C(F)(F)F)[C@H]1CCCC[C@@H]1O` [Example 66, (2R,3R,4S,5R,6R)-4-(4-(3-chloro-4,5-difluorophenyl)-1H-1,2,3-triazol-1-yl)-3,5-dihydroxy-N-((1S,2S)-2-hydroxycyclohexyl)-6-(hydroxymethyl)-N-(2-(trifluoromethyl)benzyl)tetrahydro-2H-pyran-2-carboxamide], the IC50 in assay [1] amounted to 95 nM; in assay [2] it was 534 nM.

Turning to `CC(=O)O[C@@H]1[C@@H](n2cc(-c3cc(F)c(Cl)c(F)c3)nn2)[C@@H](O)[C@@H](CO)O[C@H]1C(=O)N(Cc1ccccc1C(F)(F)F)[C@H]1CCCC[C@@H]1O` [Example 68, (2R,3R,4S,5R,6R)-4-(4-(4-chloro-3,5-difluorophenyl)-1H-1,2,3-triazol-1-yl)-5-hydroxy-2-(((1S,2S)-2-hydroxycyclohexyl)(2-(trifluoromethyl)benzyl)carbamoyl)-6-(hydroxymethyl)tetrahydro-2H-pyran-3-yl acetate], the figures for the IC50 in assay [1] and in assay [2] were 44 nM and 1170 nM, respectively.

With `O=C([C@@H]1O[C@H](CO)[C@H](O)[C@H](n2cc(-c3cc(F)c(Br)c(F)c3)nn2)[C@H]1O)N(Cc1ccccc1C(F)(F)F)[C@H]1CCCC[C@@H]1O` [Example 69, (2R,3R,4S,5R,6R)-4-(4-(4-bromo-3,5-difluorophenyl)-1H-1,2,3-triazol-1-yl)-3,5-dihydroxy-N-((1S,2S)-2-hydroxycyclohexyl)-6-(hydroxymethyl)-N-(2-(trifluoromethyl)benzyl)tetrahydro-2H-pyran-2-carboxamide], the IC50 came to 84 nM in assay [1] and 2570 nM in assay [2].

As for `O=C([C@@H]1O[C@H](CO)[C@H](O)[C@H](n2cc(-c3ccc(Br)c(F)c3)nn2)[C@H]1O)N(Cc1ccccc1C(F)(F)F)[C@H]1CCCC[C@@H]1O` [Example 70, (2R,3R,4S,5R,6R)-4-(4-(4-bromo-3-fluorophenyl)-1H-1,2,3-triazol-1-yl)-3,5-dihydroxy-N-((1S,2S)-2-hydroxycyclohexyl)-6-(hydroxymethyl)-N-(2-(trifluoromethyl)benzyl)tetrahydro-2H-pyran-2-carboxamide], the IC50 in assay [1] came out at 90 nM; in assay [2] it was 615 nM.

For the compound `O=C([C@@H]1O[C@H](CO)[C@H](O)[C@H](n2cc(-c3nc(Cl)cs3)nn2)[C@H]1O)N(Cc1ccccc1C(F)(F)F)[C@H]1CCCC[C@@H]1O` [Example 71, (2R,3R,4S,5R,6R)-4-(4-(4-chlorothiazol-2-yl)-1H-1,2,3-triazol-1-yl)-3,5-dihydroxy-N-((1S,2S)-2-hydroxycyclohexyl)-6-(hydroxymethyl)-N-(2-(trifluoromethyl)benzyl)tetrahydro-2H-pyran-2-carboxamide], the IC50 was found to be 143 nM in assay [1] and 1310 nM in assay [2].

In the case of `COc1cccc(N(C(=O)[C@@H]2O[C@H](CO)[C@H](O)[C@H](n3cc(-c4cccc(F)c4)nn3)[C@H]2OC)[C@H]2CCCC[C@@H]2O)c1` [Example 73, (2R,3R,4S,5R,6R)-4-(4-(3-fluorophenyl)-1H-1,2,3-triazol-1-yl)-5-hydroxy-N-((1S,2S)-2-hydroxycyclohexyl)-6-(hydroxymethyl)-3-methoxy-N-(3-methoxyphenyl)tetrahydro-2H-pyran-2-carboxamide], the IC50 was determined as 69 nM in assay [1] and 1540 nM in assay [2].

Take `CO[C@@H]1[C@@H](n2cc(-c3cccc(F)c3)nn2)[C@@H](O)[C@@H](CO)O[C@H]1C(=O)N(c1cc(Cl)cc(C#N)c1)[C@H]1CCCC[C@@H]1O` [Example 74]: the IC50 in assay [1] amounted to 44 nM; in assay [2], 161 nM.

Turning to `CO[C@@H]1[C@@H](n2cc(-c3cccc(F)c3C)nn2)[C@@H](O)[C@@H](CO)O[C@H]1C(=O)N(c1cc(Cl)cc(C#N)c1)[C@H]1CCCC[C@@H]1O` [Example 75, (2R,3R,4S,5R,6R)-N-(3-chloro-5-cyanophenyl)-4-(4-(3-fluoro-2-methylphenyl)-1H-1,2,3-triazol-1-yl)-5-hydroxy-N-((1S,2S)-2-hydroxycyclohexyl)-6-(hydroxymethyl)-3-methoxytetrahydro-2H-pyran-2-carboxamide], the IC50 is 50 nM in assay [1] and 259 nM in assay [2].

For the compound `COc1ccc(F)cc1-c1cn([C@H]2[C@@H](O)[C@@H](CO)O[C@@H](C(=O)N(c3cc(Cl)cc(C#N)c3)[C@H]3CCCC[C@@H]3O)[C@@H]2OC)nn1` [Example 76, (2R,3R,4S,5R,6R)-N-(3-chloro-5-cyanophenyl)-4-(4-(5-fluoro-2-methoxyphenyl)-1H-1,2,3-triazol-1-yl)-5-hydroxy-N-((1S,2S)-2-hydroxycyclohexyl)-6-(hydroxymethyl)-3-methoxytetrahydro-2H-pyran-2-carboxamide], the IC50 came out at 42 nM in assay [1] and 901 nM in assay [2].

For the compound `COc1cccc(N(C(=O)[C@@H]2O[C@H](CO)[C@H](O)[C@H](n3cc(-c4cc(F)cc(F)c4)nn3)[C@H]2OC)[C@H]2CCCC[C@@H]2O)c1` [Example 79], the IC50 in assay [1] is 62 nM; in assay [2], 2110 nM.

As for `CO[C@@H]1[C@@H](n2cc(-c3cc(F)cc(F)c3)nn2)[C@@H](O)[C@@H](CO)O[C@H]1C(=O)N(c1cc(Cl)cc(C#N)c1)[C@H]1CCCC[C@@H]1O` [Example 80, (2R,3R,4S,5R,6R)-N-(3-chloro-5-cyanophenyl)-4-(4-(3,5-difluorophenyl)-1H-1,2,3-triazol-1-yl)-5-hydroxy-N-((1S,2S)-2-hydroxycyclohexyl)-6-(hydroxymethyl)-3-methoxytetrahydro-2H-pyran-2-carboxamide], the IC50 came to 25 nM in assay [1] and 383 nM in assay [2].

Consider `CO[C@@H]1[C@@H](n2cc(-c3cc(F)cc(F)c3)nn2)[C@@H](O)[C@@H](CO)O[C@H]1C(=O)N(c1cc(C)cc(C#N)c1)[C@H]1CCCC[C@@H]1O` [Example 81, (2R,3R,4S,5R,6R)-N-(3-cyano-5-methylphenyl)-4-(4-(3,5-difluorophenyl)-1H-1,2,3-triazol-1-yl)-5-hydroxy-N-((1S,2S)-2-hydroxycyclohexyl)-6-(hydroxymethyl)-3-methoxytetrahydro-2H-pyran-2-carboxamide], for which the IC50 came out at 73 nM in assay [1] and 1320 nM in assay [2].

Take `COc1cc(C#N)cc(N(C(=O)[C@@H]2O[C@H](CO)[C@H](O)[C@H](n3cc(-c4cc(F)cc(F)c4)nn3)[C@H]2OC)[C@H]2CCCC[C@@H]2O)c1` [Example 82, (2R,3R,4S,5R,6R)-N-(3-cyano-5-methoxyphenyl)-4-(4-(3,5-difluorophenyl)-1H-1,2,3-triazol-1-yl)-5-hydroxy-N-((1S,2S)-2-hydroxycyclohexyl)-6-(hydroxymethyl)-3-methoxytetrahydro-2H-pyran-2-carboxamide]: the IC50 in assay [1] was found to be 17 nM; in assay [2] it was 1160 nM.

In the case of `CO[C@@H]1[C@@H](n2cc(-c3cc(F)cc(F)c3)nn2)[C@@H](O)[C@@H](CO)O[C@H]1C(=O)N(c1cc(C)cc(Cl)c1)[C@H]1CCCC[C@@H]1O` [Example 83, (2R,3R,4S,5R,6R)-N-(3-chloro-5-methylphenyl)-4-(4-(3,5-difluorophenyl)-1H-1,2,3-triazol-1-yl)-5-hydroxy-N-((1S,2S)-2-hydroxycyclohexyl)-6-(hydroxymethyl)-3-methoxytetrahydro-2H-pyran-2-carboxamide], the IC50 in assay [1] was determined as 26 nM; in assay [2], 2320 nM.

As for `CO[C@@H]1[C@@H](n2cc(-c3cc(F)cc(F)c3)nn2)[C@@H](O)[C@@H](CO)O[C@H]1C(=O)N(c1cccc(Br)c1)[C@H]1CCCC[C@@H]1O` [Example 84, (2R,3R,4S,5R,6R)-N-(3-bromophenyl)-4-(4-(3,5-difluorophenyl)-1H-1,2,3-triazol-1-yl)-5-hydroxy-N-((1S,2S)-2-hydroxycyclohexyl)-6-(hydroxymethyl)-3-methoxytetrahydro-2H-pyran-2-carboxamide], the IC50 turned out to be 25 nM in assay [1] and 1900 nM in assay [2].

Consider `CO[C@@H]1[C@@H](n2cc(-c3cc(F)cc(F)c3)nn2)[C@@H](O)[C@@H](CO)O[C@H]1C(=O)N(c1cccc(Cl)c1)[C@H]1CCCC[C@@H]1O` [Example 85, (2R,3R,4S,5R,6R)-N-(3-chlorophenyl)-4-(4-(3,5-difluorophenyl)-1H-1,2,3-triazol-1-yl)-5-hydroxy-N-((1S,2S)-2-hydroxycyclohexyl)-6-(hydroxymethyl)-3-methoxytetrahydro-2H-pyran-2-carboxamide], for which the values for the IC50 in assay [1] and in assay [2] were 35 nM and 1690 nM, respectively.

On to `CO[C@@H]1[C@@H](n2cc(-c3cc(F)cc(F)c3)nn2)[C@@H](O)[C@@H](CO)O[C@H]1C(=O)N(c1cccc(C#N)c1)[C@H]1CCCC[C@@H]1O` [Example 86, (2R,3R,4S,5R,6R)-N-(3-cyanophenyl)-4-(4-(3,5-difluorophenyl)-1H-1,2,3-triazol-1-yl)-5-hydroxy-N-((1S,2S)-2-hydroxycyclohexyl)-6-(hydroxymethyl)-3-methoxytetrahydro-2H-pyran-2-carboxamide], for which the figures for the IC50 in assay [1] and in assay [2] were 111 nM and 1850 nM, respectively.

With `[2H]C([2H])([2H])O[C@@H]1[C@@H](n2cc(-c3cc(F)c(F)c(F)c3)nn2)[C@@H](O)[C@@H](CO)O[C@H]1C(=O)N(c1cc(Cl)cc(Cl)c1)[C@H]1CCCC[C@@H]1O` [Example 87, (2R,3R,4S,5R,6R)-N-(3,5-dichlorophenyl)-5-hydroxy-N-((1S,2S)-2-hydroxycyclohexyl)-6-(hydroxymethyl)-3-(methoxy-d3)-4-(4-(3,4,5-trifluorophenyl)-1H-1,2,3-triazol-1-yl)tetrahydro-2H-pyran-2-carboxamide], the 50% inhibitory concentration (IC50) in assay [1] was found to be 7 nM; in assay [2], 173 nM.

The values above are taken from patent US12291519B2, “2-hydroxycycloalkane-1-carbamoyl” (Idorsia Pharmaceuticals Ltd, priority 2019, dated 2025).
